According to patent US9113629B2, “4-amino-6-(4-substituted-phenyl)-picolinates and 6-amino-2-(4-substituted-phenyl)-pyrimidine-4-carboxylates and their use as herbicides” (DOW AGROSCIENCES LLC, priority 2013, dated 2015):

Columns and labels:
Experiment in all cases: Post-emergent Test III, herbicidal activity in wheat and barley
Assay type in all cases: in vivo
[1] = tested on: SASKR: Russian thistle (Salsola iberica); settings: 21 days after application
How it was run: (§1)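 GR20, GR50, GR80 and GR90 come from probit analysis of visual injury scores (0 = none, 100 = complete kill) taken 21 d after treatment. Foliar application was by track sprayer delivering 187 L/ha at five rates, from high down to 1/16×, onto greenhouse plants at the 2–3 leaf stage, with solvent-blank controls.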

[2] = tested on: PHAMI: lesser canary grass (Phalaris minor)
How it was run: as §1

[3] = tested on: PAPRH: common poppy (Papaver rhoeas)
How it was run: as §1

[4] = probit analysis, dose for growth reduction of 50 percent, 21 days after application
[5] = probit analysis, dose for growth reduction of 80 percent, 21 days after application

Compound	pest or weed control at 35 g/ha ([1]; Salsola tragus, post-emergence, 504 h, 35 g ai/ha, read-out: Visual Gorowth Reduction (%) 21 days After Application SASKR)	pest or weed control at 70 g/ha ([1]; Salsola tragus, post-emergence, 504 h, 70 g ai/ha, read-out: Visual Gorowth Reduction (%) 21 days After Application SASKR)	GR50 SASKR ([1]; probit analysis, dose for 50 percent growth reduction)	GR80 SASKR ([1]; probit analysis, dose for 80 percent growth reduction)	pest or weed control at 35 g/ha ([2]; Phalaris minor, post-emergence, 504 h, 35 g ai/ha, read-out: Visual Growth Reduction (%) 21 Days After Application PHAMI)	pest or weed control at 70 g/ha ([2]; Phalaris minor, post-emergence, 504 h, 70 g ai/ha, read-out: Visual Growth Reduction (%) 21 Days After Application PHAMI)	pest or weed control at 140 g/ha ([2]; Phalaris minor, post-emergence, 504 h, 140 g ai/ha, read-out: Visual Growth Reduction (%) 21 Days After Application PHAMI)	GR50 PHAMI [2, 4]	GR80 PHAMI [2, 5]	pest or weed control at 35 g/ha ([3]; Papaver rhoeas, post-emergence, 504 h, 35 g ai/ha, read-out: Visual Growth Reduction (%) 21 Days After Application PAPRH)	pest or weed control at 70 g/ha ([3]; Papaver rhoeas, post-emergence, 504 h, 70 g ai/ha, read-out: Visual Growth Reduction (%) 21 Days After Application PAPRH)	pest or weed control at 140 g/ha ([3]; Papaver rhoeas, post-emergence, 504 h, 140 g ai/ha, read-out: Visual Growth Reduction (%) 21 Days After Application PAPRH)	GR50 PAPRH [3, 4]	GR80 PAPRH [3, 5]
COC(=O)c1nc(-c2ccc(Br)c(F)c2)c(F)c(N)c1Cl [Compound 49]	75 to 84%	85 to 94%	1 g ai/ha	30 g ai/ha										
COC(=O)c1nc(-c2ccc(Cl)c(F)c2)c(F)c(N)c1Cl [Compound 216]					0 to 29%	30 to 44%	75 to 84%	>140 g ai/ha	>140 g ai/ha	95 to 100%	95 to 100%	95 to 100%	1 g ai/ha	1 g ai/ha
